Columns and labels:
Trypanosoma cruzi [1] = test: Inhibition of Trypanosoma cruzi glucokinase at 20 uM using D-glucose as substrate after 1 hr in presence of ATP and […] by resazurin dye based G6PDH-diaphorase coupled fluorescence assay relative to control
Homo sapiens = organism: Homo sapiens; test: Inhibition of human glucose-6-phosphate dehydrogenase truncated mutant (29 to 511 residues) at 20 uM in presence of NADP and glucose-6-phosphate by diaphorase/resazurin coupled fluorescence assay relative to control
Trypanosoma cruzi [2] = test: Antitrypanosomal activity against Trypanosoma cruzi Tulahuen […] infected in mouse NIH/3T3 cells assessed as parasite viability at 80 uM by beta-galactosidase reporter gene assay relative to control; format: functional
[3] = Inhibition of Trypanosoma cruzi glucokinase using D-glucose as substrate in presence of ATP and […] measured for every 30 secs for 10 mins by resazurin dye based G6PDH-diaphorase coupled fluorescence assay relative to control
Trypanosoma cruzi [4] = test: Antitrypanosomal activity against Trypanosoma cruzi Tulahuen […] infected in mouse NIH/3T3 cells assessed as reduction in parasite viability by beta-galactosidase reporter gene assay; format: functional, organism-based; conditions: NIH3T3
[5] = Cytotoxicity against mouse NIH/3T3 cells after 72 hrs by alamar blue assay; format: cell-based, NIH3T3; conditions: read-out: TC50

SMILES | inhibition (Trypanosoma cruzi [1]) [%] | inhibition (Homo sapiens) [%] | Activity (Trypanosoma cruzi [2]) [%] | IC50 [3] [µM] | EC50 (Trypanosoma cruzi [4]) [µM] | CC50 at 72 h [5] [µM]
N#CCCOCCC#CCN1CCCC[C@@H]1c1cccnc1 | 36.7 | 9.2 | 50.5 |  |  | 
CCOc1ccc([C@@H]2Oc3ccccc3C=C2[N+](=O)[O-])cc1OCC | 72.9 | 4.3 | 0 |  |  | 
Cc1nn(-c2ccccc2)c2c1C(c1ccc(F)cc1)C(C#N)=C(N)O2 (stereo not drawn) | 55 | 2.7 | 87.1 | 17.1 |  | 
COc1ccc(Br)cc1/C=C1\C(=O)NC(=O)N(CCC2=CCCCC2)C1=O | 59.8 | 16.3 | 88.7 | 8 |  | 
Cc1ccc(-n2nc(C)c3c2OC(N)=C(C#N)C3c2ccoc2)cc1 (stereo not drawn) | 46.3 | 19.9 | 80.6 |  |  | 
COc1ccc(C(=O)Nc2sc3c(c2C(N)=O)CCCCC3)cc1OC | 42.7 | 12.6 | 50.5 |  |  | 
CCOc1ccc([C@@H]2Oc3ccc(Br)cc3C=C2[N+](=O)[O-])cc1OC | 43.8 | 8.2 | 0 | 6.1 | 2.1 | 80.7
OC1(C#CCN2CCCC[C@@H]2c2cccnc2)CCCCCC1 | 64 | 7.8 | 22.6 |  |  | 
Cc1cc2c(c(O)c1-c1c(C)cc3c(c1O)/C(=C/Nc1cccc4c(N)cccc14)C(=O)C(O)=C3C(C)C)/C(=C/Nc1cccc3c(N)cccc13)C(=O)C(O)=C2C(C)C | 66.9 | 9.6 | 1.7 | 16.5 |  | 
O=C1NC(=O)C(=Cc2ccc(O)c(O)c2)C(=O)N1 | 79.4 | 2 | 62.8 | 3.1 |  | 
COc1ccc(Br)cc1C1C(C#N)=C(N)Oc2c1c(C)nn2-c1ccccc1 (stereo not drawn) | 72.9 | 14 | 0 |  |  | 
CN1C(=O)C(=Cc2ccc(N(C)C)cc2)C(=O)N(C)C1=O | 63.5 | 10 | 78.9 | 5.5 |  | 
COc1ccc(S(=O)(=O)Nc2cccc(Br)c2)c(Cl)c1Cl | 42.8 | 17.5 | 0 | 5.3 | 15.4 | 69
O=C(O)C1Nc2c(I)cccc2C2C=CCC12 (stereo not drawn) | 74.2 | 19 | 44.3 |  |  | 
Cc1cc2c(c(O)c1-c1c(C)cc3c(c1O)/C(=C/Nc1ccc(S(=O)(=O)NC(=N)N)cc1)C(=O)C(O)=C3C(C)C)/C(=C/Nc1ccc(S(=O)(=O)NC(=N)N)cc1)C(=O)C(O)=C2C(C)C | 69.2 | 5.8 | 0 | 14.4 | 17.7 | 45.7
Nc1c(C(=O)c2cccc([N+](=O)[O-])c2)sc2nc(-c3cccnc3)ccc12 | 41.8 | 5.1 | 52.7 |  |  | 
O=[N+]([O-])C1=Cc2c(ccc3ccccc23)O[C@H]1c1ccc2c(c1)OCO2 | 68.4 | 8.2 | 0 |  |  | 
O=C1NC(=O)C(=Cc2ccc3c(c2)OCO3)C(=O)N1 | 67 | 5.5 | 81.2 | 8.7 |  | 
COc1ccc([C@@H]2Oc3ccccc3C=C2[N+](=O)[O-])cc1OC | 41.5 | 8.1 | 0 | 53.2 |  | 
O=C1NC(=O)C(=Cc2ccc(N3CCOCC3)cc2)C(=O)N1 | 49.4 | 1.6 | 88 | 0.9 |  | 
CCOc1ccc([C@@H]2Oc3c(Cl)cc(Cl)cc3C=C2[N+](=O)[O-])cc1OCC | 58.7 | 9.3 | 0 | 4.8 | 2.9 | < 100
Cc1nn(-c2cccc(Cl)c2)c2c1C(c1cc([N+](=O)[O-])ccc1Cl)C(C#N)=C(N)O2 (stereo not drawn) | 36.8 | 1.7 | 0 |  |  | 
O=C1C(=Cc2ccco2)C(=O)N(c2ccccc2)C(=O)N1c1ccccc1 | 54.8 | 6.6 | 66.5 | 0.3 |  | 
Cc1cc2c(c(O)c1-c1c(C)cc3c(c1O)/C(=C/Nc1c(O)cc(S(=O)(=O)O)c4ccccc14)C(=O)C(O)=C3C(C)C)/C(=C/Nc1c(O)cc(S(=O)(=O)O)c3ccccc13)C(=O)C(O)=C2C(C)C | 57.8 | 9.4 | 20.4 | 30.2 |  | 
O=C1NC(=O)C(=Cc2ccc(Br)s2)C(=O)N1 | 35.9 | 14.8 | 74.2 | 1.6 |  | 

— ChEMBL document CHEMBL4387739, “Discovery of antichagasic inhibitors by high-throughput screening with Trypanosoma cruzi glucokinase” (Bioorg Med Chem Lett, 2019)
